Experiments:
red blood cells = assay: RBC treatment with glyceraldehyde and subsequent removal; glucose recovery of RBCs recombined with plasma and glucose; type: cell-based, human; conditions: RBCs treated with 20, 35, and 50 mM for 72 hours at 2 to 10° C., washed, after 34 days, FIG. 6
Method: FIG. 6 illustrates the YSI 2300 (reference analyzer) glucose concentration (mg/dL) of blood specimens at various concentrations of D,L glyceraldehyde respectively over 4 weeks at about 2° C. to about 10° C., wherein the control is untreated blood sample. Red blood cells were treated, washed and recombined with plasma and glucose. RBC Treatment w Glyceraldehyde & Subsequent Removal • 1) Employ fresh whole blood collected in standard anticoagulant (i.e. EDTA, heparin, sodium citrate) from a healthy adult population. Alternative blood sources may include bovine, avian, porcine, equine, goat, or alligator. • 2) Allow sufficient time for the natural enzymatic breakdown of glucose to occur (i.e. glycolysis). Deplete glucose concentration to less than about 20 mg/dl. Preferred storage at 2°-30°C. • 3) Separate RBC cellular component from plasma fraction via gravity settling and or centrifugation. If desired, the removed plasma fraction may be retained for reintroduction. • 4) Wash RBC cellular component with isotonic phosphate buffered saline solution (3×). Exchange diluent via centrifugation is preferred (15 minutes @ 1500 rpm (650× g). • 5) Adjust RBC concentration to approximately 4.0×10^6/mm^3±0.25×10^6/mm^3. […]

[1] = tested on: glycolysis in whole blood; assay: Glucose stability of whole blood specimens with added D,L glyceraldehyde, YSI glucose concentration over weeks of storage; type: cell-based; conditions: about 2° C. to about 10° C.
Method: FIG. 4 illustrates the YSI glucose concentration (mg/dL) of blood specimens containing EDTA at various final concentrations of a mixture of D,L glyceraldehydes at 0.0, 1.0, 5.0, 10.0 and 20.0 mM, obtained over 4 weeks of real time testing at about 2° C. to about 10° C.; FIG. 5 illustrates the YSI 2300 (reference analyzer) glucose concentration (mg/dL) of blood specimens treated at various concentrations of D,L glyceraldehyde over 3 weeks at about 2° C. to about 10° C., wherein the control is an untreated blood sample; In one method, a sample containing a cellular component, (i.e. RBCs, WBCs) is collected into a microfuge or vacuum tube, e.g. VACUTAINER®, (such as supplied by Becton, Dickinson and Company, Franklin Lakes, N.J.). The initial concentration of glucose in the sample can be […]. The vacuum tube may contain any appropriate anticoagulant agent known to one of ordinary skill, including oxalate, EDTA, citrate, heparin or combination thereof, to form a suspension. If used, the anticoagulant may be added together simultaneously, or sequentially, to the sample. The resulting suspension is incubated at about 2° C. to about 30° C. and allowed to undergo glycolysis until the glucose level is less than about 20 mg/dL. […]

[2] = tested on: glycolysis in whole blood; conditions: final concentration about 0.9 to 20 mM; testing within 16 hours; cited from earlier work

O=CC(O)CO (racemic) [D,L glyceraldehyde, 2,3-dihydroxypropanal]
loss in glucose recovery (red blood cells): < 5% | loss of YSI glucose concentration ([1]; 20.0 mM D,L glyceraldehyde in EDTA blood, at 4 weeks, FIG. 4): less than 10% | loss of YSI glucose concentration ([1]; 30.0 mM D,L glyceraldehyde in EDTA blood, glucose burned down then added back, at 3 weeks, FIG. 5): less than 3.5% | glucose loss of stabilized whole blood sample [2]: negligible glucose loss

— patent publication US20060188995A1, “Process, composition and kit for providing a stable whole blood calibrator/control” (priority 2005, published 2006)
